What was measured:
Solubility in solvent = type: physicochemical
[1] = test system: C57BL/6 mDCs co-cultured with BALB/c CD4+CD62L+ T cells; assay: Cytokine profile of CD4+ T cells induced by DCs treated with 14-DHE, MLR (Example 11); type: cell-based, mouse; conditions: 14-DHE 3 μM, day 4 supernatant, vs control mDC
Procedure: In a manner similar to that described in the above Examples, bone marrow cells were prepared from C57BL/6 mouse thigh bone, and then dendritic cells were induced using Flt-3L. 14-DHE was added at 3 μM simultaneously with the initiation of culture. Seven days later, Salmonella typhosa-derived LPS (Sigma Aldrich) was added at 5 ng/mL and then 24 hours later, cells were recovered. Subsequently, CD11c^+CD11b^+ was set as a gate for mDCs and then recovered cells were sorted. Next, from the BALB/c mouse spleen, CD4^+CD62L^+ T cells were isolated using the CD4^+CD62L^+ T cell isolation kit II (mouse) (Miltenyi Biotec), followed by mixed culture at a ratio of mDC:CD4^+T cell of 1:5. As a control, mDC prepared in the absence of 14-DHE was used. A culture supernatant on day 4 of culture was recovered, and then TNF-α, IFN-γ, IL-6, IL-10, and IL-17 were measured by ELISA. As ELISA kits, Mouse TNF-α Ready-SET-Go! (eBioscience), a BD OptEIA Mouse IFN-γ ELISA set (BD Life Science), Mouse IL-6 Ready-SET-Go! (eBioscience), a BD OptEIA Mouse IL-10 ELISA set (BD Life Science), and Mouse IL-17 DuoSet ELISA (R&D Systems) were separately used.

[2] = test system: C57BL/6 mDCs co-cultured with BALB/c CD8+ T cells; assay: CD8+ Treg differentiation-inducing capacity of DCs treated with 14-DHE (Example 12); type: cell-based, mouse; conditions: mDC:CD8+ T 1:10; 0.5 ng/mL TGF-α 3; 5 days
Procedure: In a manner similar to Example 11, mDCs were sorted from DCs induced from C57BL/6 mouse bone marrow cells in the presence of 14-DHE and Flt-3L. Next, CD8^+ T cells were isolated from the BALB/c mouse spleen using the CD8α^+ T cell isolation kit (mouse) (Miltenyi Biotec). Cells were mixed at a ratio of mDC:CD8^+ T cell of 1:10 and then cultured in the medium containing 0.5 ng/mL […] for 5 days. Five days later, the cells were recovered and then the proportion of CD25^+FoxP3^+ cells in CD8^+ T cells was determined using a flow cytometer. Prior to flow cytometry, cell staining was performed using CD8α-PE-Cy7, CD25-APC-Cy7, and CD3e-PerCP, cell membrane permeabilization treatment was performed using the FoxP3 staining buffer set (eBioscience), and then FoxP3-PE staining was performed.

[3] = test system: naive CD4+ T cells from BALB/c mouse spleen; assay: Regulatory T-cell-inducing effect of 14-DHE on CD4+ naive T cells (Example 13); type: cell-based
Procedure: Naive CD4^+ T cells were isolated from BALB/c mouse spleen-derived cells using the CD4^+CD62L^+ T cell isolation kit II (mouse) (Miltenyi Biotec). CD4^+ T cells were seeded at a density of 5×10^5 cells/mL to 48-well plates (2.5×10^5 cells per well), and then 1 μg/mL anti-CD3 antibody and 0.2 μg/mL anti-CD28 antibody were added. At this time, 2 types of media (i.e., media with and without TGF-β) were used. 14-DHE was added at a concentration of 0, 50, 100, 500, and 1000 nM. Five days later, cells were recovered. The proportion of CD25^+FoxP3^+ cells in CD4^+ T cells was determined using a flow cytometer. Prior to flow cytometry, cell surface staining was performed using CD4-APC, CD25-FITC and CD3e-PerCP, cell membrane permeabilization treatment was performed using the FoxP3 staining buffer set (eBioscience), and then FoxP3-PE staining was performed.

[4] = test system: multiple sclerosis model mouse (Experimental Autoimmune Encephalomyelitic; EAE); assay: Multiple sclerosis model mouse (EAE): disease score (Example 15); type: in vivo; conditions: 10 μg/animal i.p. once a day, days 7 to 18; vs vehicle group
Procedure: Eight-week-old female C57BL/6 mice were divided into the following 2 groups at 5 mice per group:
(2) 14-DHE Group (10 μg/Animal)
(§1) On day 0, the 35-55 peptide (MOG35-55, Operon), a glycoprotein of myelin oligodendroglial cells, as an antigen was mixed with complete Freund's adjuvant (CFA, Difco) and then the mixture was subcutaneously administered at a dose of 200 μg/animal. Subsequently, pertussis toxin (Wako Pure Chemical Industries, Japan) was intraperitoneally administered at a dose of 200 ng/animal on day 1 and day 3, thereby inducing the onset of multiple sclerosis. During days 7 to 18, 14-DHE was intraperitoneally administered at a dose of 10 μg/animal once a day. To the vehicle group, the following solvent for 14-DHE was administered: 10% ethanol (Wako Pure Chemical Industries, Japan)/10% Cremophor (Wako Pure Chemical Industries, Japan)/80% PBS (Takara, Japan).
During the experimental period (i.e., during days 0 to 20), disease score was determined based on the following criteria:
Score 1: Unable to freely move tail
Score 2: Unable to normally walk
Score 3: Paralysis of one hindlimb
Score 4: Paralysis of both hindlimbs
Score 5: Paralysis of forelimbs and hindlimbs

[5] = test system: regional lymph node cells and spleen cells of EAE mice; assay: EAE model, day 11 autopsy: inflammatory cytokines produced by lymph node and spleen cells (ELISA); type: in vivo, mouse
Procedure: as §1
(§2) Mice were autopsied on day 11 (when inflammation was thought to take place in vivo) to obtain biochemical data.
(1) Spleen cells were prepared and then cultured for 7 days with or without re-stimulation with 2 μM MOG. Culture supernatants were recovered. The amounts of produced IFN-γ and TNF-α were measured by ELISA.

[6] = test system: CD4+ T cells in regional lymph node cells and spleen cells of EAE mice; assay: EAE model, day 11 autopsy: intracellular cytokine positive rate in CD4+ T cells; type: in vivo, mouse; conditions: re-stimulation with 2 μM MOG
Procedure: as §1, §2
(2) Spleen cells and regional lymph node (inguinal or axillary) cells were prepared and then cultured for 3 days with re-stimulation with 2 μM MOG. Golgi plug (1 μL/mL) (Becton, Dickinson and Company) was added and then further incubation was performed for 4.5 hours. Cells were recovered and then subjected to cell surface staining with CD4-PerCP and CD3-APC-Cy7. Next, cell membrane permeabilization treatment was performed using the Cytofix/CytoPerm kit (Becton, Dickinson and Company), intracellular cytokine staining was performed using antibodies to TNF-α-FITC, IL-17-PE, IL-10-APC, and IFN-γ-PE-Cy7, and then the positive rate of intracellular cytokines in CD4^+ T cells was measured using FACS.

[7] = re-stimulation with MOG antigen

For `CC(C)[C@@H](C)/C=C/[C@@H](C)[C@H]1CC=C2C3=CC=C4C[C@@H](O)CC[C@]4(C)[C@H]3CC[C@@]21C` [Sample 14-DHE, ergosta-5,7,14,22-tetraen-3β-ol], the “Solubility in solvent: chloroform” value (Solubility in solvent; chloroform) was “readily soluble”, the “Solubility in solvent: ethanol” value (Solubility in solvent; ethanol) was “hardly soluble” and the “Solubility in solvent: water” value (Solubility in solvent; water) was “insoluble”. For the same compound, the “IFN-γ production (ELISA)” value [1] was “significant decreases”, the “IL-6 production (ELISA)” value [1] was “significant decreases” and the “IL-10 production (ELISA)” value [1] was “no statistically significant difference was observed”. For the same compound, the “IL-17 production (ELISA)” value [1] was “significant decreases”, the “TNF-α production (ELISA)” value [1] was “significant decreases” and the “induction of CD8+CD25+FoxP3+ cells compared with control mDCs” value [2] was at least 3 times. For the same compound, the “effective concentration on T cells lower compared with that of DCs” value ([3]; T cells vs DCs (1 μM)) was at least 20 times, the “proportion of CD25+FoxP3+ cells in CD4+ T cells” value ([3]; absence of TGF-β, 14-DHE 50-1000 nM, 5 days) was “no change” and the “increase in proportion of CD25+FoxP3+ cells compared with no 14-DHE” value ([3]; presence of TGF-β, 14-DHE 50 nM (lowest concentration), 5 days) was at least 5 times. For the same compound, the accumulated disease score [4] was “decreases were confirmed”, the incidence [4] was “decreases were confirmed” and the maximum score [4] was “decreases were confirmed”. For the same compound, the onset [4] was “delayed onset”, the “IFN-γ production from regional lymph node cells” value ([5]; not re-stimulated with MOG antigen) was “significantly decrease” and the “TNF-α production from spleen cells” value ([5]; re-stimulated with MOG antigen) was “decreased”. For the same compound, the “IFN-γ production from regional lymph node cells” value [5, 7] was “decreasing trend”, the “IFN-γ production from spleen cells” value [5, 7] was “decreasing trend” and the “TNF-α production from regional lymph node cells” value ([5]; with or without re-stimulation with MOG antigen) was “significantly decreased”. For the same compound, the “IFN-γ production by CD4+ T cells, lymph node cells” value [6] was “significantly decrease”, the “IFN-γ production by CD4+ T cells, spleen cells” value [6] was “significantly decrease” and the “IL-17 production by CD4+ T cells, spleen cells” value [6] was “significantly decrease”. For the same compound, the “TNF-α production by CD4+ T cells, lymph node cells” value [6] was “significantly decrease” and the “TNF-α production by CD4+ T cells, spleen cells” value [6] was “significantly decrease”.

— patent US9101566B2, “Fermentation product of cereal plant-derived material and immunomodulator” (KIRIN HOLDINGS KABUSHIKI KAISHA, priority 2009, dated 2015)
